Source: PMC8145430 (Chemical Science, 2019)

Tested on: A549 cells
Test: Confocal imaging of intracellular localization of fluorescein-labeled peptides
Assay type: cell-based, human
Settings: 1 μM, 10 minutes, 37°C, confocal images

H-GLFDIIKKIAESF-K(FAM)K5SKTKC(Far)-OMe [FAM-Memrasin]
tethering on the PM: displays a clearer tethering on the PM
